Literature values as cited in patent US6517854B2, “Antimicrobial sanitizing lotion with skin protection properties” (priority 1999, dated 2003).

Experiments:
fungi and yeasts = details: organisms listed in the 1st table r65-r73
gram-negative bacteria = details: organisms listed in the 1st table r28-r63
gram-positive bacteria = details: organisms listed in the 1st table r1-r26

Oc1cc(Cl)ccc1Oc1ccc(Cl)cc1Cl [TRICLOSAN, 2,4,4′-trichloro-2′-hydroxydiphenyl ether]
demonstrated efficacy: efficacy against fungi and yeasts (fungi and yeasts) | efficacy against gram-negative bacteria (gram-negative bacteria) | efficacy against gram-positive bacteria (gram-positive bacteria)
